Reference: ChEMBL document CHEMBL5137041, “Total Syntheses and Cytotoxicity Evaluation of Coryaurone A and Representative Analogues” (J Nat Prod, 2022)
pIC50: −log10 of the molar value.

Experiments:
[1] = tested on: SW480; assay: Cytotoxicity against human SW480 cells assessed as cell growth inhibition incubated for 48 hrs by MTS assay; assay type: functional, cell-based; conditions: SW480, 48 h
[2] = tested on: HL-60; assay: Cytotoxicity against human HL-60 cells assessed as cell growth inhibition incubated for 48 hrs by MTS assay; assay type: functional, cell-based; conditions: HL-60, 48 h

CC(C)(O)[C@H]1Cc2c(ccc3c2O/C(=C\c2ccc(O)c(O)c2)C3=O)O1
pIC50 [1]: 4.89
pIC50 [2]: 4.74

CC(C)(O)[C@H]1Cc2c(ccc3c2O/C(=C\c2cccc4cccnc24)C3=O)O1
pIC50 [1]: < 4.40
pIC50 [2]: < 4.40

CC(C)(O)[C@H]1Cc2c(ccc3c2O/C(=C\c2ccc(Cl)cc2)C3=O)O1
pIC50 [1]: 5.11
pIC50 [2]: < 4.40

COc1ccc(/C=C2\Oc3c(ccc4c3C[C@H](C(C)(C)O)O4)C2=O)cc1
pIC50 [1]: < 4.40
pIC50 [2]: < 4.40

CC(C)(O)[C@H]1Cc2c(ccc3c2O/C(=C\c2ccc(O)c(Cl)c2)C3=O)O1
pIC50 [1]: 4.46
pIC50 [2]: 4.85

CC(C)(O)[C@H]1Cc2c(ccc3c2O/C(=C\c2ccco2)C3=O)O1
pIC50 [1]: 4.41
pIC50 [2]: 4.55

CC(C)(O)[C@H]1Cc2c(ccc3c2OCC3=O)O1
pIC50 [1]: < 4.40
pIC50 [2]: < 4.40

CC(C)(O)[C@H]1Cc2c(ccc3c2OC(Cc2ccc(O)c(O)c2)C3)O1 (stereo not given in full)
pIC50 [1]: < 4.40
pIC50 [2]: < 4.40

CC(C)(O)[C@H]1Cc2c(ccc3c2O/C(=C\c2ccc(O)c(C(=O)O)c2)C3=O)O1
pIC50 [1]: < 4.40
pIC50 [2]: < 4.40

Cc1cc(/C=C2\Oc3c(ccc4c3C[C@H](C(C)(C)O)O4)C2=O)ccc1O
pIC50 [1]: 4.96
pIC50 [2]: < 4.40

CC(C)(O)[C@H]1Cc2c(ccc3c2O/C(=C\c2ccc(O)cc2)C3=O)O1
pIC50 [1]: < 4.40
pIC50 [2]: < 4.40

COc1ccc(/C=C2\Oc3c(ccc4c3C[C@H](C(C)(C)O)O4)C2=O)cc1O
pIC50 [1]: 4.70
pIC50 [2]: 5.41

CC(C)(O)[C@H]1Cc2c(ccc3c2O/C(=C\c2ccc(C(F)(F)F)cc2)C3=O)O1
pIC50 [1]: < 4.40
pIC50 [2]: 4.80

CC(C)(O)[C@H]1Cc2c(ccc3c2O/C(=C\c2ccccc2)C3=O)O1
pIC50 [1]: < 4.40
pIC50 [2]: < 4.40

CC(C)(O)[C@H]1Cc2c(ccc3c2O/C(=C\c2cc([N+](=O)[O-])ccc2O)C3=O)O1
pIC50 [1]: 4.64
pIC50 [2]: 4.92

CC(C)(O)[C@H]1Cc2c(ccc3c2O/C(=C\c2ccc([N+](=O)[O-])cc2)C3=O)O1
pIC50 [1]: 5.04
pIC50 [2]: < 4.40

CC(C)(O)[C@H]1Cc2c(ccc3c2O/C(=C\c2ccc4[nH]ccc4c2)C3=O)O1
pIC50 [1]: < 4.40
pIC50 [2]: < 4.40

CC(C)(O)[C@H]1Cc2c(ccc3c2O/C(=C\c2cccs2)C3=O)O1
pIC50 [1]: < 4.40
pIC50 [2]: < 4.40

COc1cc(/C=C2\Oc3c(ccc4c3C[C@H](C(C)(C)O)O4)C2=O)cc(OC)c1OC
pIC50 [1]: < 4.40
pIC50 [2]: 4.66

CC(C)=CCc1c(O)ccc2c1O/C(=C\c1ccc(O)c(O)c1)C2=O [LICOAGROAURONE]
pIC50 [1]: 5.09
pIC50 [2]: 4.72
